The target of the test is T1, human CRTH2 (Homo sapiens, UniProt Q9Y5Y4).
T1 sequence (Q9Y5Y4 1-395): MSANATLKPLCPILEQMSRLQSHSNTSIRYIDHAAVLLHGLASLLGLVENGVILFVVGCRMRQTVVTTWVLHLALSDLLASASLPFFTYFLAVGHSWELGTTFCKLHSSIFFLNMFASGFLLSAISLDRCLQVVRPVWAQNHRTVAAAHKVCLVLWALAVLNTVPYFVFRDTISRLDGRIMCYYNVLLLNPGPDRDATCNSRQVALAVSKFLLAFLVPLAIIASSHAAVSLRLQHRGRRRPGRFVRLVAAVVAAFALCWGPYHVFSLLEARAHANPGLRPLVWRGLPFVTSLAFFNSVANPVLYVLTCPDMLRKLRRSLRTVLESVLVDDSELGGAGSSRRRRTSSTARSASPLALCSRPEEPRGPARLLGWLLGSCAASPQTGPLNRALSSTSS
The test is described as follows: Human CRTH2 Receptor Binding Assay (whole cell, [3H]ramatroban). On the set-up: expressed in transfected cells; host or cells: CHO-K1. The settings on record: CHO-K1 cells expressing human CRTH2 and G-alpha16; 20 nM [3H]ramatroban; 1 hour, room temperature. An excerpt: A whole cell receptor binding assay using [^3H]ramatroban as the competing radioactive ligand was employed to evaluate the compound binding activity to human CRTH2. The radioactive ligand [^3H]ramatroban was synthesized according to Sugimoto et. al. (Eur. J. Pharmacol. 524, 30-37, 2005) to a specific activity of 42 Ci/mmol.
A cell line stably expressing human CRTH2 was established by transfecting CHO-K1 cells with two mammalian expression vectors that harbored human CRTH2 and G-alpha16 cDNAs, respectively, using FuGene® 6 transfection reagent (from Roche). Stable clones expressing CRTH2 were selected by staining each clone with BM16 (BD Pharmingen™ from BD Biosciences, a division of Becton, Dickinson and Company), which is a rat monoclonal antibody to human CRTH2. The cells were maintained as monolayer cultures in Ham's F-12 medium containing 10% fetal bovine serum, 100 units/mL penicillin, 100 μg/mL streptomycin, 2 mM glutamine, 0.5 mg/mL G418 (geneticin) for CRTH2, and 0.2 mg/mL hygromycin-B (for G-alpha 16). For whole cell receptor binding assay, the monolayer cells were rinsed once with PBS (phosphate buffered saline), dissociated using ethylenediaminetetraacetate (Versene™ EDTA from Lonza Inc.), and suspended in PBS containing 10 mM MgCl2 and 0.06% BSA (bovine serum albumin) at 1.5×10^6 cells/mL.
The binding reactions (0.2 mL) were performed in 96-well plates at room temperature in PBS containing 1.5×10^5 cells, 10 mM MgCl2, 0.06% BSA, 20 nM [^3H]ramatroban, and test compound at various concentrations. After 1 hour of binding reactions, the cells were harvested on GF™/B filter microplates (microtiter plates with embedded glass fiber from Perkin Elmer, Inc.) and washed 5 times with PBS using a Filtermate™ Harvester (a cell harvester that harvests and washes cells from microplates from PerkinElmer, Inc.). The radioactivities bound to the cells were determined using a microplate scintillation counter (TopCount® NXT, from PerkinElmer, Inc.) after adding 50 μL of Microscint™ 20 scintillation fluid (from PerkinElmer, Inc.) to each well of the filter plates. The radioactivity from non-specific binding was determined by replacing compound with 10 μM of 15(R)-15-methyl PGD2 (from Cayman Chemical Company) in the reaction mixtures. The radioactivity bound to the cells in the absence of compound (total binding) was determined by replacing compound with 0.25% of DMSO (dimethyl sulfoxide) in the reaction mixture. Specific binding data were obtained by subtracting the radioactivity of non-specific binding from each binding data.
The IC50 value is defined as the concentration of the tested compound that is required for 50% inhibition of total specific binding. In order to calculate the IC50 value, the percent inhibition data were determined for 7 concentrations for each compound. The percent inhibition for a compound at each concentration was calculated according to the following formula, [1-(specific binding in the presence of compound)/(total specific binding)]×100. The IC50 value was then obtained by fitting the percent inhibition data to a sigmoidal dose-response (4 parameter logistic) model in the XLfit® software Excel add-in program [from ID Business Solutions Ltd., model 205, where F(x)=(A+(B−A)/(1+((C/×)^D)))].

What is called IC50 is the point on the concentration scale where inhibition reaches its midpoint. Read a high IC50 as weaker potency.

On to `O=C(O)Cc1cc(C(=O)c2ccc(S(=O)(=O)N3CCOCC3)cc2)c2cc(F)ccc2c1` [Example 2-16, {6-Fluoro-4-[4-(morpholine-4-sulfonyl)-benzoyl]-naphthalen-2-yl}-acetic acid], for which the IC50 came out at 3.3 nM.
With `Cc1c(CC(=O)O)cc2ccc(F)cc2c1Cc1ccc(Br)cc1` [Example 10-4, [4-(4-Bromo-benzyl)-6-fluoro-3-methyl-naphthalen-2-yl]-acetic acid], the IC50 amounted to 24 nM.
Then `CCS(=O)(=O)c1ccc(C(O)c2cc(CC(=O)O)cc3ccc(F)cc23)c(C)c1` (stereo not shown) [Example 16-8, {4-[(4-Ethanesulfonyl-2-methyl-phenyl)-hydroxy-methyl]-6-fluoro-naphthalen-2-yl}-acetic acid], with 18.9 nM; and `Cc1cc(S(C)(=O)=O)ccc1Cc1cc(CC(=O)O)cc2ccc(F)cc12` [Example 8-5, [6-Fluoro-4-(4-methanesulfonyl-2-methyl-benzyl)-naphthalen-2-yl]-acetic acid], with 5.3 nM.
For `CS(=O)(=O)c1ccc(Cc2cc(CC(=O)O)cc3ccc(C(F)(F)F)cc23)cc1` [Example 8-2, [4-(4-Methanesulfonyl-benzyl)-6-trifluoromethyl-naphthalen-2-yl]-acetic acid] the value was 15.3 nM.
Then `CNS(=O)(=O)c1ccc(C(=O)c2cc(CC(=O)O)cc3ccc(F)cc23)c(C)c1` [Example 2-25, [6-Fluoro-4-(2-methyl-4-methylsulfamoyl-benzoyl)-naphthalen-2-yl]-acetic acid], with 8.9 nM; and `CCS(=O)(=O)c1ccc(Cc2cc(CC(=O)O)cc3ccc(F)cc23)c(C)c1` [Example 8-7, [4-(4-Ethanesulfonyl-2-methyl-benzyl)-6-fluoro-naphthalen-2-yl]-acetic acid], with 5.4 nM.
On to `O=C(O)Cc1cc(C(=O)c2ccc(S(=O)(=O)c3cccc(Cl)c3)cc2)c2cc(F)ccc2c1` [Example 1-5, {4-[4-(3-Chloro-benzenesulfonyl)-benzoyl]-6-fluoro-naphthalen-2-yl}-acetic acid], for which the IC50 came out at 6.2 nM.
In turn, `Cc1c(CC(=O)O)cc2ccc(F)cc2c1Cc1cccc(S(=O)(=O)C(F)(F)F)c1` [Example 11-2, [6-Fluoro-3-methyl-4-(3-trifluoromethanesulfonyl-benzyl)-naphthalen-2-yl]-acetic acid] displayed an IC50 of 68 nM.
Turning to `CS(=O)(=O)c1ccc(C(F)(F)c2cc(CC(=O)O)cc3ccc(F)cc23)c(Cl)c1` [Example 17-1, {4-[(2-Chloro-4-methanesulfonyl-phenyl)-difluoro-methyl]-6-fluoro-naphthalen-2-yl}-acetic acid], the 50% inhibitory concentration (IC50) came to 5.7 nM.
For `CNS(=O)(=O)c1ccc(C(=O)c2cc(CC(=O)O)cc3ccc(F)cc23)cc1` [Example 2-15, [6-Fluoro-4-(4-methylsulfamoyl-benzoyl)-naphthalen-2-yl]-acetic acid] the value was 3.3 nM; for `CN(C)S(=O)(=O)c1ccc(C(=O)c2cc(CC(=O)O)cc3ccccc23)cc1` [Example 1-1, [4-(4-Dimethylsulfamoyl-benzoyl)-naphthalen-2-yl]-acetic acid], 17.8 nM; for `O=C(O)Cc1cc(C(O)c2ccc(S(=O)(=O)N3CCOCC3)cc2)c2cc(F)ccc2c1` (stereo not shown) [Example 19-2, (6-Fluoro-4-{hydroxy-[4-(morpholine-4-sulfonyl)-phenyl]-methyl}-naphthalen-2-yl)-acetic acid], 9.5 nM.
Then `CS(=O)(=O)c1ccc(C(=O)c2cc(CC(=O)O)cc3cc(C(F)(F)F)ccc23)cc1` [Example 2-32, [4-(4-Methanesulfonyl-benzoyl)-7-trifluoromethyl-naphthalen-2-yl]-acetic acid], with 272 nM; and `CCOC(=O)N1CCN(S(=O)(=O)c2ccc(C(=O)c3cc(CC(=O)O)cc4ccc(F)cc34)cc2)CC1` [Example 4-1, 4-[4-(3-Carboxymethyl-7-fluoro-naphthalene-1-carbonyl)-benzenesulfonyl]-piperazine-1-carboxylic acid ethyl ester], with 8.3 nM.
The compound `Cc1c(CC(=O)O)cc2ccc(F)cc2c1Cc1cccc(Cl)c1` [Example 15-2, [4-(3-Chloro-benzyl)-6-fluoro-3-methyl-naphthalen-2-yl]-acetic acid] registered a half-maximal inhibitory concentration (IC50) of 83.8 nM.
Compound `Cc1c(CC(=O)O)cc2ccc(F)cc2c1Cc1ccc(SCc2ccccc2)cc1` [Example 10-11, [4-(4-Benzylsulfanyl-benzyl)-6-fluoro-3-methyl-naphthalen-2-yl]-acetic acid] returned a 50% inhibitory concentration (IC50) of 3.5 nM.
Consider `CS(=O)(=O)c1ccc(C(O)c2cc(CC(=O)O)cc3ccc(Cl)cc23)cc1` (stereo not shown) [Example 16-3, {6-Chloro-4-[hydroxy-(4-methanesulfonyl-phenyl)-methyl]-naphthalen-2-yl}-acetic acid], for which the IC50 turned out to be 15.9 nM.
For `Cc1c(CC(=O)O)cc2ccc(Cl)cc2c1C(=O)c1ccc(S(C)(=O)=O)cc1` [Example 6-2, [6-Chloro-4-(4-methanesulfonyl-benzoyl)-3-methyl-naphthalen-2-yl]-acetic acid], the IC50 worked out at 3.7 nM.
For `CS(=O)(=O)c1ccc(C(O)c2cc(CC(=O)O)cc3ccccc23)cc1` (stereo not shown) [Example 16-6, {4-[Hydroxy-(4-methanesulfonyl-phenyl)-methyl]-naphthalen-2-yl}-acetic acid] the value was 35.2 nM.
`Cc1c(CC(=O)O)cc2ccc(F)cc2c1C(=O)c1ccc(S(C)(=O)=O)cc1` [Example 6-1, [6-fluoro-4-(4-methanesulfonyl-benzoyl)-3-methyl-naphthalen-2-yl]-acetic acid] returned a half-inhibitory concentration (IC50) of 2.1 nM.
`CS(=O)(=O)c1ccc(C(O)c2cc(CC(=O)O)cc3ccc(F)cc23)c(Cl)c1` (stereo not shown) [Example 16-1, {4-[(2-Chloro-4-methanesulfonyl-phenyl)-hydroxy-methyl]-6-fluoro-naphthalen-2-yl}-acetic acid] yielded an IC50 of 16.1 nM.
`Cc1cc(S(C)(=O)=O)ccc1C(O)c1cc(CC(=O)O)cc2ccc(F)cc12` (stereo not shown) [Example 16-4, {6-Fluoro-4-[hydroxy-(4-methanesulfonyl-2-methyl-phenyl)-methyl]-naphthalen-2-yl}-acetic acid] yielded an IC50 of 31.9 nM.
In turn, `Cc1ccc2cc(CC(=O)O)cc(Cc3ccc(S(C)(=O)=O)cc3)c2c1` [Example 8-1, [4-(4-Methanesulfonyl-benzyl)-6-methyl-naphthalen-2-yl]-acetic acid] had an IC50 of 87.8 nM.
Consider `CN(C)S(=O)(=O)c1ccc(Cc2cc(CC(=O)O)cc3ccc(F)cc23)cc1` [Example 8-8, [4-(4-Dimethylsulfamoyl-benzyl)-6-fluoro-naphthalen-2-yl]-acetic acid], for which the IC50 worked out at 6 nM.
Then `Cc1c(CC(=O)O)cc2ccc(F)cc2c1Cc1ccc(OC(F)(F)F)cc1` [Example 15-4, [6-Fluoro-3-methyl-4-(4-trifluoromethoxy-benzyl)-naphthalen-2-yl]-acetic acid], with 79.3 nM.
In the case of `CS(=O)(=O)c1ccc(C(F)(F)c2cc(CC(=O)O)cc3ccc(F)cc23)cc1` [Example 17-2, {4-[Difluoro-(4-methanesulfonyl-phenyl)-methyl]-6-fluoro-naphthalen-2-yl}-acetic acid], the IC50 came to 3.1 nM.
With `Cc1c(CC(=O)O)cc2ccc(F)cc2c1Cc1ccc(-c2ccc(S(C)(=O)=O)cc2)cc1` [Example 12-1, [6-Fluoro-4-(4′-methanesulfonyl-biphenyl-4-ylmethyl)-3-methyl-naphthalen-2-yl]-acetic acid], the half-inhibitory concentration (IC50) was 5.6 nM.

The record behind these values is patent US8124629B2, “Naphthylacetic acids” (Hoffmann-La Roche Inc., priority 2008, dated 2012).
